In US6689788B1, “Method and composition for treatment of inflammatory bowel disease” (University of Florida, priority 2000, dated 2004):
Entries after “also recorded” stand apart in the source; their conditions may differ.

Tests used:
[1] = system: acetic acid-induced colitis; assay: acetic acid-induced colitis in the rat, test drug i.r. 30 minutes before acetic acid; format: in vivo; details: for damage in the colons: 650 μmol/kg i.r. 30 minutes before acetic acid, colons assessed 24 hours later
From the text: A typical model of IBD in acetic acid-induced colitis in the rat has been described by Krawisz et al in Amer. J. Proc. Gastro. Col. Rec. Surg., Vol. 31, pages 11-18 (1980); and by Sharon et al in Gastroenterology, Vol. 88, pages 55-63 (1985) and Vol. 86, pages 453-460 (1984). Acetic acid-induced colitis is characterized by the movement of inflammatory cells into the colon, with the number of such cells in the mucosa being measured by the activity of myeloperoxidase, a marker enzyme for these cells. Positive desirable activity is indicated by a reduction in the high levels of myeloperoxidase caused by acetic acid. Typically, Sprague-Dawley rats from Charles River Laboratories, Portage, Mich. (either sex, weight approximately 250 g) are dosed with test compounds and controls. Thereafter, the rats are given an intracolonic enema of acetic acid which produces a severe inflammatory response in the colon of a healthy rat characterized by rectal bleeding, diarrhea, epithelial erosions and destructions of crypts and gland cells. Twenty-four hours later, the test and control animals are sacrificed and the distal ten centimeters of the colons are removed and opened longitudinally. The tissue lesions contained within the removed, opened section of the colons are scored. After the systematic evaluation of the impact of various fasting times, use of vehicles, the time interval between pre-treatment and administration of the acetic acid and altering the concentration of acetic acid, the final protocol for the experiments is to fast the rats for 30 hours in hanging wire cages, anesthetize the animals with sodium pentobarbital, administer the test drug 1 cc intrarectally (i.r.) either as a suspension or a solution in water, and to give the acetic acid (7.5% in water) 1 cc i.r. 30 minutes later. The rats are sacrificed 24 hours later and the colons are removed and assessed for damage.

[2] = system: acetic acid-induced colitis; assay: reversal studies, compound given 30 minutes after 2.5% acetic acid; format: in vivo, rat
From the text: (§1) The lesions were apparently resolving and with some lamina proprial fibrosis and considerable hyperplasia of submucosal lymphoid tissue. […] This is a highly desirable property, as patients suffering from IBD are already anemic due to disease-related blood loss.

mice = details: mouse, in vivo
From the text: DFO and DFT given i.r. at a dose of 650 μmol/kg were ineffective. […] See, for example, FIGS. 7 and 8.

[3] = iron binding in a test tube; format: physicochemical
From the text: as §1

iron = iron chelator activity when given to rats; format: in vivo
From the text: as §1

| Compound | damage in the colons [1] | dose response study, prevention of severe lesions ([1]; 162.5 μmol/kg (41.5 mg/kg) at 1 cc i.r.) | head-to-head comparison with 5-ASA or its commercially available formulation (Rowasa) ([1]; compound 650 μmol/kg vs. 5-ASA/Rowasa 1742 μmol/kg) | lesions compared with the control group [2] | acute toxicity (mice) | iron binding [3] | activity as an iron chelator (iron; orally) | activity as an iron chelator (iron; subcutaneously (s.c.)) |
| --- | --- | --- | --- | --- | --- | --- | --- | --- |
| CC(=O)N(O)CCCCCNC(=O)CCC(=O)N(O)CCCCCNC(=O)CCC(=O)N(O)CCCCCN [DFO, reference compound] | ineffective |  |  |  |  |  |  |  |
| C[C@]1(C(=O)O)CSC(c2ncccc2O)=N1 [DFT, reference compound] | ineffective |  |  |  |  |  |  |  |
| Cc1ccc(O)c(C2=NC(C(=O)O)CC2)c1 (stereo not shown) [2H-pyrrolecarboxylic acid, 3,4-dihydro-5-(2-hydroxy-5-methylphenyl)-2H-pyrrole-2-carboxylic acid] | very little damage; also recorded: considerably less damage | severe lesions being prevented in a majority of rats | far superior | less severe and less active | virtually non-toxic | binds iron remarkably well | inactive | inactive |
